Measurements from US9630977B2, “Cephalosporin derivatives and pharmaceutical compositions thereof” (Legochem Biosciences, Inc., priority 2011, dated 2017).
Converted amounts (≈) assume the structure as drawn. Read-outs that look alike come from different tables or passages of the source.

How the values were obtained:
Assay in all cases: In vitro antibacterial activity test (broth microdilution)
Type in all cases: cell-based
A. baumannii 46 = system: A. baumannii 46
Method: (§1) To evaluate antibacterial activity of each of the compounds of Examples 1 to 68, in vitro antibacterial activity test was performed.
(§2) The in vitro antibacterial activity was evaluated by measuring MIC90 (ug/mL) of each of the compounds of Examples 1 to 68, which is defined as the lowest concentration of an antibiotic that will inhibit the visible growth of 90% of microorganisms after incubation as compared with a control group to which the antibiotic is not treated. MIC90 values were measured by the broth microdilution method developed by the Clinical and Laboratory Standards Institute (CLSI) (see CLSI M7-A5, Methods for Dilution Antimicrobial Susceptibility Test for Bacteria that Grow Aerobically-Fifth Edition (2000): CLSI, Villanova, Pa.).
(§3) In vitro antibacterial activity was measured with respect to the following 19 clinical isolates: M. catarrhalis; P. aeruginosa (5 strains); K. pneumoniae (6 strains); A. baumannii (3 strains); E. coli (2 strains); A. calcoaceticus; and E. cloacae.
(§4) Test compounds each (the cephalosporin derivative compounds prepared in Examples 1 to 68) were dissolved in DMSO at the concentration of 10,240 ug/mL, were diluted by two fold with DMSO, and then were diluted by twenty fold with sterilized distilled water. The final concentration in the antibacterial activity test was in the range of […] to 128 ug/mL, and the final concentration of DMSO used as an adjuvant was 2.5% (V/V).

A. baumannii 49 = system: A. baumannii 49
Method: as §1, §2, §3, §4

A. baumannii 52 = conditions: Acinetobacter baumannii
Method: as §1, §2, §3, §4

[1] = system: A. calcoaceticus ATCC15473; conditions: Acinetobacter calcoaceticus
Method: as §1, §2, §3, §4

E. cloacae β19 = conditions: Enterobacter cloacae
Method: as §1, §2, §3, §4

E. coli AG100 = conditions: Escherichia coli
Method: as §1, §2, §3, §4

E. coli β4 = conditions: Escherichia coli
Method: as §1, §2, §3, §4

K. pneumoniae 2011E = conditions: Klebsiella pneumoniae, 2011E
Method: as §1, §2, §3, §4

K. pneumoniae β10 = conditions: Klebsiella pneumoniae
Method: as §1, §2, §3, §4

K. pneumoniae β11 = conditions: Klebsiella pneumoniae
Method: as §1, §2, §3, §4

K. pneumoniae β13 = conditions: Klebsiella pneumoniae
Method: as §1, §2, §3, §4

K. pneumoniae β14 = conditions: Klebsiella pneumoniae
Method: as §1, §2, §3, §4

K. pneumoniae β9 = conditions: Klebsiella pneumoniae
Method: as §1, §2, §3, §4

M. catarrhalis 2524 = conditions: Moraxella catarrhalis
Method: as §1, §2, §3, §4

P. aeruginosa 1912E = conditions: Pseudomonas aeruginosa, 1912E
Method: as §1, §2, §3, §4

P. aeruginosa 37 = conditions: Pseudomonas aeruginosa, 37, P. aeruginosa 37
Method: as §1, §2, §3, §4

P. aeruginosa 40 = system: P. aeruginosa 40
Method: as §1, §2, §3, §4

P. aeruginosa 43 = conditions: Pseudomonas aeruginosa
Method: as §1, §2, §3, §4

P. aeruginosa 6065Y = conditions: Pseudomonas aeruginosa
Method: as §1, §2, §3, §4

[2] = Acinetobacter baumannii, 46, A. baumannii 46
[3] = Acinetobacter baumannii, 49, A. baumannii 49
[4] = ATCC15473, A. calcoaceticus ATCC15473
[5] = Acinetobacter baumannii, A. baumannii 46, read-out: MIC90
[6] = Acinetobacter baumannii, A. baumannii 49, read-out: MIC90
[7] = A. baumannii 52, read-out: MIC90
[8] = A. calcoaceticus ATCC15473, read-out: MIC90
[9] = AG100, E. coli AG100, read-out: MIC90
[10] = K. pneumoniae 2011E, read-out: MIC90
[11] = M. catarrhalis 2524, read-out: MIC90
[12] = Pseudomonas aeruginosa, 40, P. aeruginosa 40, read-out: MIC90
[13] = P. aeruginosa 43, read-out: MIC90

MIC90 (A. baumannii 46; [5]) [µg/mL]	Compound	MIC90 (A. baumannii 46; [2]) [µg/mL]	MIC90 (A. baumannii 49; [3]) [µg/mL]	MIC90 (A. baumannii 52; 52) [µg/mL]	MIC90 [1, 4] [µg/mL]	MIC90 (E. cloacae β19) [µg/mL]	MIC90 (E. coli AG100; AG100) [µg/mL]	MIC90 (E. coli β4) [µg/mL]	MIC90 (K. pneumoniae 2011E) [µg/mL]	MIC90 (K. pneumoniae β10) [µg/mL]	MIC90 (K. pneumoniae β11) [µg/mL]	MIC90 (K. pneumoniae β13) [µg/mL]	MIC90 (K. pneumoniae β14) [µg/mL]	MIC90 (K. pneumoniae β9) [µg/mL]	MIC90 (M. catarrhalis 2524; 2524) [µg/mL]	MIC90 (P. aeruginosa 1912E) [µg/mL]	MIC90 (P. aeruginosa 37) [µg/mL]	MIC90 (P. aeruginosa 40; Pseudomonas aeruginosa, 40) [µg/mL]	MIC90 (P. aeruginosa 43; 43) [µg/mL]	MIC90 (P. aeruginosa 6065Y; 6065Y) [µg/mL]	also measured
	CC(C)(O/N=C(\C(=O)N[C@@H]1C(=O)N2C(C(=O)[O-])=C(/C=C/C[n+]3cnc(N)c(NC(=O)CN)c3N)CSC12)c1csc(N)n1)C(=O)O (stereo partly shown) [Compound 43]	32 (≈ 47.4 µM)	> 128	> 128	4 (≈ 5.92 µM)	0.5 (≈ 0.74 µM)	0.25 (≈ 0.37 µM)	0.5 (≈ 0.74 µM)	0.5 (≈ 0.74 µM)	0.5 (≈ 0.74 µM)	32 (≈ 47.4 µM)	0.5 (≈ 0.74 µM)	1 (≈ 1.48 µM)	1 (≈ 1.48 µM)	< 0.0625	4 (≈ 5.92 µM)	32 (≈ 47.4 µM)	16 (≈ 23.7 µM)	> 128	16 (≈ 23.7 µM)	
	CC(C)(O/N=C(\C(=O)N[C@@H]1C(=O)N2C(C(=O)[O-])=C(/C=C/C[n+]3cnc(N)c(NC(=O)CCCN)c3N)CSC12)c1nc(N)sc1Cl)C(=O)O (stereo partly shown) [Compound 67]	64 (≈ 86.7 µM)	64 (≈ 86.7 µM)	64 (≈ 86.7 µM)	4 (≈ 5.42 µM)	32 (≈ 43.3 µM)	0.5 (≈ 0.677 µM)	2 (≈ 2.71 µM)	2 (≈ 2.71 µM)	4 (≈ 5.42 µM)	8 (≈ 10.8 µM)	2 (≈ 2.71 µM)	4 (≈ 5.42 µM)	8 (≈ 10.8 µM)	< 0.0625	4 (≈ 5.42 µM)	16 (≈ 21.7 µM)	16 (≈ 21.7 µM)	> 128	32 (≈ 43.3 µM)	
16 (≈ 20.6 µM)	C[C@H](O/N=C(\C(=O)N[C@@H]1C(=O)N2C(C(=O)[O-])=C(C[n+]3cnc(N)c(NCCNC(=O)c4cc(=O)c(O)c[nH]4)c3)CSC12)c1nc(N)sc1Cl)C(=O)O (stereo partly shown) [Compound 17]																				MIC90 (A. baumannii 49; [6]): 4 µg/mL (≈ 5.14 µM); MIC90 (A. baumannii 52; [7]): 2 µg/mL (≈ 2.57 µM); MIC90 [1, 8]: 0.5 µg/mL (≈ 0.643 µM); MIC90 (E. cloacae β19; read-out: MIC90): 2 µg/mL (≈ 2.57 µM); MIC90 (E. coli AG100; [9]): 1 µg/mL (≈ 1.29 µM); MIC90 (E. coli β4; read-out: MIC90): 4 µg/mL (≈ 5.14 µM); MIC90 (K. pneumoniae 2011E; [10]): 4 µg/mL (≈ 5.14 µM); MIC90 (K. pneumoniae β10; K. pneumoniae β10, read-out: MIC90): 4 µg/mL (≈ 5.14 µM); MIC90 (K. pneumoniae β11; K. pneumoniae β11, read-out: MIC90): 32 µg/mL (≈ 41.1 µM); MIC90 (K. pneumoniae β13; K. pneumoniae β13, read-out: MIC90): 1 µg/mL (≈ 1.29 µM); MIC90 (K. pneumoniae β14; read-out: MIC90): 32 µg/mL (≈ 41.1 µM); MIC90 (K. pneumoniae β9; K. pneumoniae β9, read-out: MIC90): 1 µg/mL (≈ 1.29 µM); MIC90 (M. catarrhalis 2524; [11]): 0.125 µg/mL (≈ 0.161 µM); MIC90 (P. aeruginosa 1912E; read-out: MIC90): 2 µg/mL (≈ 2.57 µM); MIC90 (P. aeruginosa 37; read-out: MIC90): 8 µg/mL (≈ 10.3 µM); MIC90 (P. aeruginosa 40; [12]): 8 µg/mL (≈ 10.3 µM); MIC90 (P. aeruginosa 43; [13]): 2 µg/mL (≈ 2.57 µM); MIC90 (P. aeruginosa 6065Y; read-out: MIC90): 2 µg/mL (≈ 2.57 µM)
	CC(C)(O/N=C(\C(=O)N[C@@H]1C(=O)N2C(C(=O)[O-])=C(/C=C/C[n+]3cnc(N)c(NC(=O)CCCN)c3)CSC12)c1nsc(N)n1)C(=O)O (stereo partly shown) [Compound 65]	64 (≈ 92.8 µM)	64 (≈ 92.8 µM)	64 (≈ 92.8 µM)	0.5 (≈ 0.725 µM)	32 (≈ 46.4 µM)	< 0.0625	0.125 (≈ 0.181 µM)	0.25 (≈ 0.362 µM)	1 (≈ 1.45 µM)	> 128	2 (≈ 2.9 µM)	2 (≈ 2.9 µM)	16 (≈ 23.2 µM)	< 0.0625	2 (≈ 2.9 µM)	32 (≈ 46.4 µM)	4 (≈ 5.8 µM)	> 128	32 (≈ 46.4 µM)	
4 (≈ 5.19 µM)	CC(C)(O/N=C(\C(=O)N[C@@H]1C(=O)N2C(C(=O)[O-])=C(C[n+]3cnc(N)c(NCCCNC(=O)c4ccc(O)c(O)c4)c3)CSC12)c1csc(N)n1)C(=O)O (stereo partly shown) [Compound 31]																				MIC90 (A. baumannii 49; [6]): 32 µg/mL (≈ 41.5 µM); MIC90 (A. baumannii 52; [7]): 64 µg/mL (≈ 83 µM); MIC90 [1, 8]: 1 µg/mL (≈ 1.3 µM); MIC90 (E. cloacae β19; read-out: MIC90): 16 µg/mL (≈ 20.8 µM); MIC90 (E. coli AG100; [9]): 0.25 µg/mL (≈ 0.324 µM); MIC90 (E. coli β4; read-out: MIC90): 8 µg/mL (≈ 10.4 µM); MIC90 (K. pneumoniae 2011E; [10]): 8 µg/mL (≈ 10.4 µM); MIC90 (K. pneumoniae β14; read-out: MIC90): 32 µg/mL (≈ 41.5 µM); MIC90 (M. catarrhalis 2524; [11]): 1 µg/mL (≈ 1.3 µM); MIC90 (P. aeruginosa 1912E; read-out: MIC90): 1 µg/mL (≈ 1.3 µM); MIC90 (P. aeruginosa 37; read-out: MIC90): 1 µg/mL (≈ 1.3 µM); MIC90 (P. aeruginosa 40; [12]): 2 µg/mL (≈ 2.59 µM); MIC90 (P. aeruginosa 43; [13]): 1 µg/mL (≈ 1.3 µM); MIC90 (P. aeruginosa 6065Y; read-out: MIC90): 4 µg/mL (≈ 5.19 µM)
